According to PubChem BioAssay AID248 (DTP/NCI, 2004):
“And” between values parts separate entries of the source, which are not always exact repeats. Identical values can stand only once. Toxic doses and inconclusive results are not listed. No stated cut-off is given here; in the data, active means T/C of 150% or more; inactive means T/C below 125%.

Test system: L1210 leukemia ip in BDF1 mice, survival T/C
Assay: NCI In Vivo Anticancer Drug Screen. Data for tumor model L1210 Leukemia (intraperitoneal) in B6D2F1 (BDF1) mice
Conditions: endpoint: mean survival time, higher = longer survival
In short: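 In this screen, tumor-bearing mice given compound are compared to those given vehicle, and their survival values are reported as a treated-to-control quotient.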

[1] = dose: 100.0 mg/kg/injection, schedule: Q01DX001 (ip), vehicle: Klucel (hydroxypropylcellulose) (HPC)
[2] = dose: 100.0 mg/kg/injection, schedule: Q01DX009 (ip), vehicle: Klucel (hydroxypropylcellulose) (HPC)
[3] = dose: 100.0 mg/kg/injection, schedule: Q04DX003 (ip), vehicle: Klucel (hydroxypropylcellulose) (HPC)
[4] = dose: 200.0 mg/kg/injection, schedule: Q01DX001 (ip), vehicle: Klucel (hydroxypropylcellulose) (HPC)
[5] = dose: 200.0 mg/kg/injection, schedule: Q01DX009 (ip), vehicle: Klucel (hydroxypropylcellulose) (HPC)
[6] = dose: 200.0 mg/kg/injection, schedule: Q04DX003 (ip), vehicle: Klucel (hydroxypropylcellulose) (HPC)
[7] = dose: 400.0 mg/kg/injection, schedule: Q01DX001 (ip), vehicle: Klucel (hydroxypropylcellulose) (HPC)
[8] = dose: 400.0 mg/kg/injection, schedule: Q04DX003 (ip), vehicle: Klucel (hydroxypropylcellulose) (HPC)
[9] = dose: 100.0 mg/kg/injection, schedule: Q04DX003 (ip), vehicle: saline
[10] = dose: 100.0 mg/kg/injection, schedule: Q04DX002 (ip), vehicle: saline
[11] = dose: 12.5 mg/kg/injection, schedule: Q04DX003 (ip), vehicle: saline with Tween-80
[12] = dose: 25.0 mg/kg/injection, schedule: Q04DX003 (ip), vehicle: saline with Tween-80
[13] = dose: 100.0 mg/kg/injection, schedule: Q01DX009 (ip), vehicle: saline
[14] = dose: 200.0 mg/kg/injection, schedule: Q01DX009 (ip), vehicle: saline
[15] = dose: 100.0 mg/kg/injection, schedule: Q04DX002 (ip), vehicle: saline with Tween-80
[16] = dose: 200.0 mg/kg/injection, schedule: Q04DX002 (ip), vehicle: saline with Tween-80
[17] = dose: 400.0 mg/kg/injection, schedule: Q04DX002 (ip), vehicle: saline with Tween-80

Measured: T/C

C[CH2][Pb]([CH2]C)([CH2]C)[O]C(=O)C(Cl)(Cl)Cl
inactive: dose: 0.39 mg/kg/injection, schedule: Q01DX009 (ip), vehicle: other 101 % of control and 105 % of control | dose: 0.78 mg/kg/injection, schedule: Q01DX009 (ip), vehicle: other 102 % of control and 90 % of control | dose: 1.5 mg/kg/injection, schedule: Q01DX001 (ip), vehicle: other 113 % of control | dose: 1.5 mg/kg/injection, schedule: Q04DX002 (ip), vehicle: other 100 % of control | dose: 1.56 mg/kg/injection, schedule: Q01DX009 (ip), vehicle: other 93 % of control | dose: 3.0 mg/kg/injection, schedule: Q01DX001 (ip), vehicle: other 103 % of control | dose: 3.0 mg/kg/injection, schedule: Q04DX002 (ip), vehicle: other 100 % of control | dose: 6.0 mg/kg/injection, schedule: Q01DX001 (ip), vehicle: other 107 % of control | dose: 6.0 mg/kg/injection, schedule: Q04DX002 (ip), vehicle: other 109 % of control | dose: 6.25 mg/kg/injection, schedule: Q04DX003 (ip), vehicle: other 92 % of control | dose: 12.0 mg/kg/injection, schedule: Q04DX002 (ip), vehicle: other 101 % of control | dose: 12.5 mg/kg/injection, schedule: Q01DX001 (ip), vehicle: other 89 % of control | dose: 12.5 mg/kg/injection, schedule: Q04DX003 (ip), vehicle: other 97 % of control | dose: 25.0 mg/kg/injection, schedule: Q01DX001 (ip), vehicle: other 100 % of control | dose: 25.0 mg/kg/injection, schedule: Q04DX002 (ip), vehicle: carboxymethylcellulose (CMC) 94 % of control and 102 % of control | dose: 25.0 mg/kg/injection, schedule: Q04DX003 (ip), vehicle: other 87 % of control

CC(C)(C)c1cc(/C=N/NC(=O)CCCCCCCCC(=O)N/N=C/c2cc(C(C)(C)C)c(O)c(C(C)(C)C)c2)cc(C(C)(C)C)c1O
inactive: [1] 104 % of control | [2] 94 % of control | dose: 100.0 mg/kg/injection, schedule: Q04DX002 (ip), vehicle: Klucel (hydroxypropylcellulose) (HPC) 109 % of control | [3] 111 % of control | [4] 103 % of control | [5] 94 % of control and 90 % of control | dose: 200.0 mg/kg/injection, schedule: Q04DX002 (ip), vehicle: Klucel (hydroxypropylcellulose) (HPC) 100 % of control | [6] 110 % of control | [7] 93 % of control | dose: 400.0 mg/kg/injection, schedule: Q04DX002 (ip), vehicle: Klucel (hydroxypropylcellulose) (HPC) 102 % of control | [8] 108 % of control

Cc1ccc(S(=O)(=O)NCl)cc1
inactive: [9] 99 % of control

S=c1ccnc[nH]1
inactive: dose: 100.0 mg/kg/injection, schedule: Q01DX Z (ip), vehicle: methylcellulose (MC) 87 % of control | dose: 200.0 mg/kg/injection, schedule: Q01DX Z (ip), vehicle: methylcellulose (MC) 88 % of control

CC(NC(=O)CCN)C(=O)O (stereo not given)
inactive: dose: 25.0 mg/kg/injection, schedule: Q04DX002 (ip), vehicle: saline 96 % of control | dose: 50.0 mg/kg/injection, schedule: Q04DX002 (ip), vehicle: saline 89 % of control | [10] 102 % of control

CNN1CCOC1=O
inactive: [10] 100 % of control | dose: 200.0 mg/kg/injection, schedule: Q04DX002 (ip), vehicle: saline 100 % of control | dose: 400.0 mg/kg/injection, schedule: Q04DX002 (ip), vehicle: saline 104 % of control

COc1ccc(C(=O)CCN2CCC(O)(c3ccccc3)CC2)cc1
inactive: [11] 100 % of control | [12] 92 % of control | dose: 50.0 mg/kg/injection, schedule: Q04DX003 (ip), vehicle: saline with Tween-80 96 % of control

O=[N+]([O-])c1ccc(Oc2ccc(F)cc2)c([N+](=O)[O-])c1
inactive: dose: 50.0 mg/kg/injection, schedule: Q01DX001 (ip), vehicle: saline 103 % of control | dose: 100.0 mg/kg/injection, schedule: Q01DX001 (ip), vehicle: saline 103 % of control | dose: 200.0 mg/kg/injection, schedule: Q01DX001 (ip), vehicle: saline 97 % of control | dose: 400.0 mg/kg/injection, schedule: Q01DX001 (ip), vehicle: saline 105 % of control

CCOC(=O)CC(N)C(=O)OCC (stereo not given)
inactive: [13] 98 % of control | [3] 99 % of control | [9] 88 % of control | [14] 95 % of control | [6] 100 % of control | dose: 200.0 mg/kg/injection, schedule: Q04DX003 (ip), vehicle: saline 93 % of control | dose: 400.0 mg/kg/injection, schedule: Q01DX009 (ip), vehicle: saline 97 % of control | [8] 87 % of control | dose: 400.0 mg/kg/injection, schedule: Q04DX003 (ip), vehicle: saline 102 % of control

Cc1ccc(NC(=S)Nc2ccccc2F)cc1
inactive: dose: 100.0 mg/kg/injection, schedule: Q01DX001 (ip), vehicle: saline with Tween-80 94 % of control and 100 % of control | [15] 100 % of control and 104 % of control | dose: 200.0 mg/kg/injection, schedule: Q01DX001 (ip), vehicle: saline with Tween-80 98 % of control and 100 % of control | [16] 95 % of control | dose: 400.0 mg/kg/injection, schedule: Q01DX001 (ip), vehicle: saline with Tween-80 96 % of control and 103 % of control | [17] 92 % of control and 104 % of control

CN(C)Cc1c[nH]c2ncccc12
inactive: dose: 6.25 mg/kg/injection, schedule: Q04DX003 (ip), vehicle: saline with Tween-80 98 % of control | [11] 96 % of control | [12] 102 % of control

Cc1cc(=O)n(-c2ccc(N)cc2)n1C
inactive: [3] 100 % of control | [6] 100 % of control | [8] 101 % of control

CCCCCCCCCCCCCCCC[As](=O)(O)O
inactive: [3] 121 % of control | [6] 93 % of control | [8] 90 % of control

CCOC(=O)C(=[N+]=[N-])C(F)(F)F
inactive: dose: 50.0 mg/kg/injection, schedule: Q01DX009 (ip), vehicle: saline 102 % of control | [13] 102 % of control | [14] 95 % of control

C[n+]1cccc(C(=O)O)c1
inactive: dose: 50.0 mg/kg/injection, schedule: Q01DX001 (ip), vehicle: carboxymethylcellulose (CMC) 95 % of control | dose: 100.0 mg/kg/injection, schedule: Q01DX001 (ip), vehicle: carboxymethylcellulose (CMC) 95 % of control | dose: 200.0 mg/kg/injection, schedule: Q01DX001 (ip), vehicle: carboxymethylcellulose (CMC) 98 % of control

Cc1cc(C)c(NC(=O)c2ccccc2Cl)c(C)c1
inactive: dose: 100.0 mg/kg/injection, schedule: Q01DX009 (ip), vehicle: saline with Tween-80 93 % of control | dose: 200.0 mg/kg/injection, schedule: Q01DX009 (ip), vehicle: saline with Tween-80 93 % of control | dose: 400.0 mg/kg/injection, schedule: Q01DX009 (ip), vehicle: saline with Tween-80 97 % of control

CCOC(=O)NOP(=O)(N1CC1)N1CC1
active: [10] 153 % of control

CC(=O)Nc1cc2[nH]cnc2c(Br)n1
inactive: dose: 25.0 mg/kg/injection, schedule: Q01DX005 (ip), vehicle: saline 100 % of control | dose: 50.0 mg/kg/injection, schedule: Q01DX005 (ip), vehicle: saline 105 % of control | dose: 100.0 mg/kg/injection, schedule: Q01DX005 (ip), vehicle: saline 110 % of control

Cc1ccc(NC(=O)COc2c(C)cc(Cl)cc2Cl)cc1
inactive: [15] 107 % of control | [16] 96 % of control | [17] 93 % of control

O=c1[nH]c(-c2ccccc2)nc2[nH]ncc12
inactive: [3] 105 % of control | [6] 92 % of control | [8] 87 % of control

CN1CCOc2ccccc2OCCOCCOc2ccccc2OCC1
inactive: [1] 100 % of control | [4] 96 % of control | [7] 102 % of control

CC(S)CNCCSC(=O)c1ccccc1 (stereo not given)
inactive: dose: 100.0 mg/kg/injection, schedule: Q04DX003 (ip), vehicle: acetone 91 % of control | dose: 200.0 mg/kg/injection, schedule: Q04DX003 (ip), vehicle: acetone 102 % of control | dose: 400.0 mg/kg/injection, schedule: Q04DX003 (ip), vehicle: acetone 97 % of control

CC1(C)C2CCC1(C)C2C=O (stereo not given)
inactive: [2] 96 % of control | [5] 93 % of control | dose: 400.0 mg/kg/injection, schedule: Q01DX009 (ip), vehicle: Klucel (hydroxypropylcellulose) (HPC) 96 % of control
